From patent EP1282414B1, “FELBAMATE DERIVED COMPOUNDS FOR TREATING NEUROPATHIC PAIN” (University of Virginia Patent Foundation, priority 2000, dated 2001)
Marks after values point to notes of the source that are not given here.

What was measured:
[1] = Minimal neurotoxicity (TOX), rotorod test, mice i.p.; assay type: in vivo; conditions: in vivo, ip; mouse, I.P.
Source text: The fluoro derivatives synthesized were submitted to the National Institute of Neurological Disorders and Stroke (NINDS) for evaluation in a standard panel of assays. Two convulsant tests (MES and scMET), and a toxicity screen (rotorod in mice, positional sense and gait in rats) were employed for evaluating the compounds activity as neuroprotecting agents. These testing procedures are described in detail in Molecular and Cellular Targets for Anti-epileptic Drugs, eds. […] The felbamate derivatives were evaluated for anticonvulsant activity following intraperitoneal (i.p.) administration in mice and oral administration in rats. […]

[2] = Minimal neurotoxicity (TOX), positional sense and gait and stance tests, rats p.o.; assay type: in vivo; conditions: in vivo, po; rat
Source text: (§1) The fluoro derivatives synthesized were submitted to the National Institute of Neurological Disorders and Stroke (NINDS) for evaluation in a standard panel of assays. Two convulsant tests (MES and scMET), and a toxicity screen (rotorod in mice, positional sense and gait in rats) were employed for evaluating the compounds activity as neuroprotecting agents. These testing procedures are described in detail in Molecular and Cellular Targets for Anti-epileptic Drugs, eds. […] The felbamate derivatives were evaluated for anticonvulsant activity following intraperitoneal (i.p.) administration in mice and oral administration in rats.
(§2) Rats are examined for behavioral toxicity by the positional sense test and a gait and stance test. […] In the gait and stance test, neurotoxicity is indicated by a circular or zigzag gait, ataxia, abnormal spread of the legs, abnormal posture, tremor hyperactivity, lack of exploratory behavior, somnolence, stupor or catalepsy. […]

[3] = system: rats; experiment: as above; assay type: in vivo; conditions: for TOX, number of animals exhibiting toxic effects / total number of animals tested: rat p.o., 30 mg/kg
Source text: as §1, §2

[4] = system: focal seizures; experiment: Hippocampal kindling model (kindled rats), i.p.; assay type: in vivo, adult male Sprague-Dawley rats; parameters: key to Seizure Score ± S.E.M.: Racine seizure score (stage 5 = generalized seizure); conditions: for Number Protected / Number Tested / Afterdischarge Duration (sec) ± S.E.M / Seizure Score ± S.E.M.: i.p.
Source text: The hippocampal kindling model can be used to evaluate a compound's ability to affect both the expression and acquisition of focal seizures. The hippocampal kindling paradigm as described by Lothman and Williamson (Lothman, 1994) allows the temporal effects of a drug to be evaluated in a single animal. This procedure requires the surgical placement ofbipolar electrodes in the ventral hippocampus of adult male Sprague-Dawley rats. Stage five behavioral seizures are produced by using a stimulus consisting of a 50 Hz, 10 s train of 1 ms biphasic 200 uA pulses delivered every 30 min for 6 hours (12 stimuli per day) on alternating days for a total of 60 stimulations (five stimulus days). Prior to evaluating a candidate's anticonvulsant activity, a drug free control period consisting of supramaximal stimulations are recorded to verify the stability of a stage five generalized seizure.
A single dose of the candidate compound is then administered intraperitoneally (i.p.), 15 min following the last control stimulation. The anticonvulsant activity of the drug is assessed every 30 min for three to four hours starting 15 min after administering the test material. After each stimulation, individual Racine seizure scores and afterdischarge durations are recorded. Rats are used again in drug trials after four to five drug- and stimulus-free days.

[5] = system: mice; experiment: Toxicity, mice oral; assay type: in vivo; conditions: oral administration
Protocol: Toxicity induced by a compound is detected in mice using the standardized rotorod test described by Dunham & Miya (1957). Untreated control mice, when placed on a 6 r.p.m. rotation rod, can maintain their equilibrium for a prolonged period of time.
Toxicity across time doe not occur until dosages of 300mg/kg. […] Quantitative results obtained for fluoro felbamate 12 in mice indicated a MES ED50 of approximately 20 mg/kg with a safety ratio of at least five (see Table 3). Results obtained for oral administration of fluoro felbamate 12 to rats indicated a MES ED50 of about 3 mg/kg with no toxicity at doses up to 500 mg/kg.

[6] = system: seizures; experiment: NINDS standard panel of assays (MES, scMET, toxicity screen), overall; assay type: in vivo; conditions: relative to felbamate
Source text: The fluoro derivatives synthesized were submitted to the National Institute of Neurological Disorders and Stroke (NINDS) for evaluation in a standard panel of assays. Two convulsant tests (MES and scMET), and a toxicity screen (rotorod in mice, positional sense and gait in rats) were employed for evaluating the compounds activity as neuroprotecting agents. These testing procedures are described in detail in Molecular and Cellular Targets for Anti-epileptic Drugs, eds. G. Avanzini, G. Regesta, P. Tanganelli, M. Avoli, 1997, John Libbey & Company Ltd, pp 191-198. The felbamate derivatives were evaluated for anticonvulsant activity following intraperitoneal (i.p.) administration in mice and oral administration in rats.

[7] = Dose Responses, 25 mg/kg (time not given)
[8] = Dose Responses, 50 mg/kg (time not given)
[9] = Dose Responses, 100 mg/kg (time not given)

## NC(=O)OCC(F)(COC(N)=O)c1ccccc1 [fluoro felbamate, 2-Fluoro-2-phenyl-1,3-propanediol dicarbamate]
[1]
  ED50: 115 mg/kg
[2]
  ED50: > 500 mg/kg
[3]; 0.25h
  TOX, number of animals exhibiting toxic effects / total number of animals tested: 0/4
[3]; 0.5h
  TOX, number of animals exhibiting toxic effects / total number of animals tested: 0/4
[3]; 1.0h
  TOX, number of animals exhibiting toxic effects / total number of animals tested: 0/4
[3]; 2.0h
  TOX, number of animals exhibiting toxic effects / total number of animals tested: 0/4
[3]; 4.0h
  TOX, number of animals exhibiting toxic effects / total number of animals tested: 1/4
[3]; rats, oral administration
  no toxicity at doses up to: up to 500 mg/kg
[4]; 100mg/kg
  change in afterdischarge duration (in words): corresponding decrease
  change in seizure score (in words): significant drop
[4]; Dose Responses, 25 mg/kg
  Number Protected / Number Tested: 0/7
[4]; [7]
  Afterdischarge Duration (sec) ± S.E.M: 71.43 ± 5.50 s
  Seizure Score ± S.E.M.: 4.57 ± 0.20
[4]; Dose Responses, 50 mg/kg
  Number Protected / Number Tested: 3/7
[4]; [8]
  Afterdischarge Duration (sec) ± S.E.M: 68.57 ± 20.14 s
  Seizure Score ± S.E.M.: 2.86 ± 0.83
[4]; Dose Responses, 100 mg/kg
  Number Protected / Number Tested: 7/8^a
[4]; [9]
  Afterdischarge Duration (sec) ± S.E.M: 29.00 ± 10.86 s
  Seizure Score ± S.E.M.: 1.50 ± 0.57
[4]; 25 mg/kg, 15 min
  Afterdischarge Duration (sec) ± S.E.M: 77.29 ± 4.91 s
  Seizure Score ± S.E.M.: 4.86 ± 0.14
[4]; 25 mg/kg, 45 min
  Afterdischarge Duration (sec) ± S.E.M: 71.43 ± 5.50 s
  Seizure Score ± S.E.M.: 4.57 ± 0.20
[4]; 25 mg/kg, 75 min
  Afterdischarge Duration (sec) ± S.E.M: 64.43 ± 11.19 s
  Seizure Score ± S.E.M.: 4.00 ± 0.69
[4]; 25 mg/kg, 105 min
  Afterdischarge Duration (sec) ± S.E.M: 70.29 ± 4.85 s
  Seizure Score ± S.E.M.: 4.57 ± 0.20
[4]; 25 mg/kg, 135 min
  Afterdischarge Duration (sec) ± S.E.M: 53.86 ± 9.33 s
  Seizure Score ± S.E.M.: 4.43 ± 0.57
[4]; 25 mg/kg, 165 min
  Afterdischarge Duration (sec) ± S.E.M: 59.29 ± 3.28 s
  Seizure Score ± S.E.M.: 4.71 ± 0.18
[4]; 25 mg/kg, 195 min
  Afterdischarge Duration (sec) ± S.E.M: 54.00 ± 9.62 s
  Seizure Score ± S.E.M.: 3.86 ± 0.67
[4]; 25 mg/kg, 225 min
  Afterdischarge Duration (sec) ± S.E.M: 53.29 ± 9.03 s
  Seizure Score ± S.E.M.: 4.00 ± 0.69
[4]; 25 mg/kg, 255 min
  Afterdischarge Duration (sec) ± S.E.M: 64.00 ± 3.42 s
  Seizure Score ± S.E.M.: 4.86 ± 0.14
[4]; 50 mg/kg, 15 min
  Afterdischarge Duration (sec) ± S.E.M: 67.14 ± 12.39 s
  Seizure Score ± S.E.M.: 3.86 ± 0.70
[4]; 50 mg/kg, 45 min
  Afterdischarge Duration (sec) ± S.E.M: 68.57 ± 20.14 s
  Seizure Score ± S.E.M.: 2.86 ± 0.83
[4]; 50 mg/kg, 75 min
  Afterdischarge Duration (sec) ± S.E.M: 63.00 ± 17.45 s
  Seizure Score ± S.E.M.: 3.14 ± 0.83
[4]; 50 mg/kg, 105 min
  Afterdischarge Duration (sec) ± S.E.M: 60.86 ± 14.93 s
  Seizure Score ± S.E.M.: 3.43 ± 0.90
[4]; 50 mg/kg, 135 min
  Afterdischarge Duration (sec) ± S.E.M: 65.00 ± 13.10 s
  Seizure Score ± S.E.M.: 3.71 ± 0.64
[4]; 50 mg/kg, 165 min
  Afterdischarge Duration (sec) ± S.E.M: 43.14 ± 14.67 s
  Seizure Score ± S.E.M.: 2.71 ± 0.97
[4]; 50 mg/kg, 195 min
  Afterdischarge Duration (sec) ± S.E.M: 52.86 ± 14.59 s
  Seizure Score ± S.E.M.: 3.14 ± 0.83
[4]; 50 mg/kg, 225 min
  Afterdischarge Duration (sec) ± S.E.M: 39.86 ± 10.98 s
  Seizure Score ± S.E.M.: 3.00 ± 0.87
[4]; 50 mg/kg, 255 min
  Afterdischarge Duration (sec) ± S.E.M: 33.29 ± 11.76 s
  Seizure Score ± S.E.M.: 2.57 ± 0.72
[4]; 100 mg/kg, 15 min
  Afterdischarge Duration (sec) ± S.E.M: 40.75 ± 15.74 s
  Seizure Score ± S.E.M.: 1.75 ± 0.73
[4]; 100 mg/kg, 45 min
  Afterdischarge Duration (sec) ± S.E.M: 29.00 ± 10.86 s
  Seizure Score ± S.E.M.: 1.50 ± 0.57
[4]; 100 mg/kg, 75 min
  Afterdischarge Duration (sec) ± S.E.M: 38.63 ± 12.58 s
  Seizure Score ± S.E.M.: 1.88 ± 0.67
[4]; 100 mg/kg, 105 min
  Afterdischarge Duration (sec) ± S.E.M: 53.38 ± 12.59 s
  Seizure Score ± S.E.M.: 2.38 ± 0.65
[4]; 100 mg/kg, 135 min
  Afterdischarge Duration (sec) ± S.E.M: 33.63 ± 12.88 s
  Seizure Score ± S.E.M.: 2.00 ± 0.76
[4]; 100 mg/kg, 165 min
  Afterdischarge Duration (sec) ± S.E.M: 43.38 ± 12.79 s
  Seizure Score ± S.E.M.: 2.75 ± 0.65
[4]; 100 mg/kg, 195 min
  Afterdischarge Duration (sec) ± S.E.M: 45.25 ± 13.33 s
  Seizure Score ± S.E.M.: 2.25 ± 0.70
[4]; 100 mg/kg, 225 min
  Afterdischarge Duration (sec) ± S.E.M: 47.38 ± 14.80 s
  Seizure Score ± S.E.M.: 2.50 ± 0.73
[4]; 100 mg/kg, 255 min
  Afterdischarge Duration (sec) ± S.E.M: 45.38 ± 13.92 s
  Seizure Score ± S.E.M.: 2.50 ± 0.65
[5]
  no toxicity at doses up to: up to 218 mg/kg
[6]
  times more active than felbamate: 5-10 times
